Assay results as given in PMC10046037, “GABRG2 Variants Associated with Febrile Seizures” (Biomolecules, 2023).

Target: T1, α1β3γ2 GABAA receptor, γ2Y468C variant (Homo sapiens, UniProt P14867+P18507+P28472, Y468C)
T1 construct: expressed in transfected cells; host or cells: HEK293T
T1 sequence (P14867 28-456): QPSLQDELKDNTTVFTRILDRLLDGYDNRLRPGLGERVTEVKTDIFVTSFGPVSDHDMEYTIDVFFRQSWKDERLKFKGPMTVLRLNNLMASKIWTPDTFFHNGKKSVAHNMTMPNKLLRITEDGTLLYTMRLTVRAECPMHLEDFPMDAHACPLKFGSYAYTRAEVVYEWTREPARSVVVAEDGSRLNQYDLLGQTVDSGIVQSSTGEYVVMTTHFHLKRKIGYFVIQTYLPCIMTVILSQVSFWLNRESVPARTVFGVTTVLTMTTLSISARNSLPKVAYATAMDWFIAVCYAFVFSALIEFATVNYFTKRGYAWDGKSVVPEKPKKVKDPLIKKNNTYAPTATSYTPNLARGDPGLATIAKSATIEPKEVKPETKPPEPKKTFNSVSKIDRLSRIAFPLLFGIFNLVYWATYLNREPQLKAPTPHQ
T1 sequence (P28472 26-473 isoform P28472-2): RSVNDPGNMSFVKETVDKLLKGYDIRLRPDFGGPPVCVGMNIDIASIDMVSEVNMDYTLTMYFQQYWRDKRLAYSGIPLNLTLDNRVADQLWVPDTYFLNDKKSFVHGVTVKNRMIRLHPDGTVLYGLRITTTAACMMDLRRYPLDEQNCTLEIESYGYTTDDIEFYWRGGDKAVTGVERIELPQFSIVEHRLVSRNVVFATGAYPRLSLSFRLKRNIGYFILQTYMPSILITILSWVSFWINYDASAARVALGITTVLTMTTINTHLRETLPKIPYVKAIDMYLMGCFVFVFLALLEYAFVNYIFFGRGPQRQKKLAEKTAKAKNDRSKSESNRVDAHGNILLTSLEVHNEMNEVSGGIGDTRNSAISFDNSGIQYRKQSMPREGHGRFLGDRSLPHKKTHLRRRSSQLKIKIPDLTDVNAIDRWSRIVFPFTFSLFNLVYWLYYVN
T1 sequence (P18507 40-475 Y468C): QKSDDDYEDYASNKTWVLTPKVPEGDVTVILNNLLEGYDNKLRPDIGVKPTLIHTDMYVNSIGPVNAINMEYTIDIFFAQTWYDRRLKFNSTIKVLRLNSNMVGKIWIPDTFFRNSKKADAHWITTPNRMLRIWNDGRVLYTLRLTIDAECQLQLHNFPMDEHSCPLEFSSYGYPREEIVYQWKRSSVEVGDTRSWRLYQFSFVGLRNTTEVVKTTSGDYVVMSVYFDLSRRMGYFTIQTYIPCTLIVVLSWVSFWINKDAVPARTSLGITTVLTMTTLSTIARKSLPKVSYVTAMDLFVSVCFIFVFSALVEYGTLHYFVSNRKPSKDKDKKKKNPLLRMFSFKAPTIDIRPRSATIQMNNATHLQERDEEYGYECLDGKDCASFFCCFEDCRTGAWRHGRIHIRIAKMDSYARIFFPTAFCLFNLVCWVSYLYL
Test: Automated patch clamp of GABA-elicited currents (SyncroPatch 384PE), γ2Y468C
Format: cell-based
Details: mean
Method: The coding sequences of human α1 (GABRA1, NM_000806), β3 (GABRB3, NM_021912), and γ2 (GABRG2, NM_198904.2) GABAAR subunits were subcloned into the pcDNA3.1 expression vectors (Invitrogen, Waltham, MA, USA).
HEK293T cells (ATCC, CRL-11268) were cultured at 37 °C in a humidified 5% CO2 incubator and maintained in Dulbecco’s modified Eagle’s medium (Invitrogen) supplemented with 10% fetal bovine serum (Life Technologies, Carlsbad, CA, USA), and 100 IU/mL of penicillin/streptomycin (Life Technologies). For the expression experiments, 4 × 10^5 cells were transfected using polyethylenimine (PEI) reagent (40 kD, Polysciences, Warrington, PA, USA) at a DNA: to transfection reagent ratio of 1:2.5 and harvested 36 h after transfection. To express WT and variant α1β3γ2 receptors, a total of 3 µg of α1, β3, and γ2 (WT or mutant) subunit cDNAs were transfected at a ratio of 1:1:1 into 60 mm culture dishes. For the mock-transfected condition, an empty pcDNA3.1 vector was added for a final cDNA transfection amount of 3 μg. For the electrophysiology experiments, 2.5 × 10^5 cells were plated in 100 mm culture dishes and transfected after 24 h with 3 μg of cDNA of each α1, β3, γ2 (wild-type or mutant) subunit, using X-tremeGENE HP DNA transfection Reagent (Roche Diagnostics, Basel, Switzerland), following the manufacturer’s protocol. Recordings were obtained forty-eight hours after transfection.
Whole-cell patch clamp recordings were conducted according to the manufacturer’s standard procedure for the SyncroPatch 384 [31]. Whole-cell voltage-clamp recordings were performed at room temperature on HEK293T cells 48 h after transfection with GABAAR subunits, using the SyncroPatch 384PE (Nanion Technologies, Munich, Germany). Cells, at a concentration of 400,000 cells/mL, were harvested in suspension in external solution containing 140 mM of NaCl, 2 mM of CaCl2, 4 mM of KCl, 1 mM of MgCl2, 5 mM of glucose, and 10 mM of HEPES (pH 7.4 with NaOH, 298 mOsm). The cells were loaded in a multi-hole (4 holes per well) 384-well Nanion patch clamp (NPC) chip with a thick borosilicate glass bottom and an average resistance pore size of […]. Built-in electrophysiological protocols were used, and the data were digitized using PatchControl 384 (Nanion Technologies) application. Using PatchControl 384, electrophysiological parameters, such as seal resistance, capacitance, and series resistance, were determined for each well after the application of a test pulse, and subsequently monitored over time. […] The currents were normalized to the maximal response of each well, and the concentration–response curves were calculated from single-point additions. The EC50 values for each variant or wild-type receptor were calculated across multiple wells for each experimental condition.

Compound: NCCCC(=O)O [GABA, γ-aminobutyric acid]
- Deactivation (1 mM GABA for 5 ms, HEK293T, -80 mV): 433.9 ms
- IMAX (maximal GABA-evoked peak current) (1 mM GABA for 5 ms, HEK293T): 0.80 nA
- IMAX variant/IMAX WT (1 mM GABA): 40.06%
- Rise Time (10–90% rise time, 1 mM GABA for 5 ms, HEK293T): 26.52 ms
